The record followed here is patent US20230390411A1, “CONJUGATE AND USE THEREOF” (NANJING CHEMPION BIOTECHNOLOGY CO., LTD., priority 2021, published 2023).

Usually IC50 stands for the concentration that gives 50% inhibition. High values mean weaker potency in that assay, low ones greater potency in that assay.

The data set deals with NCI-N87 cells. In words: Cytotoxicity assay (CellTiter-Glo). The data set is classed as cell-based. To be noted: 6 days, max 50 nM. Here is the method:
When the confluence of cultured NCI-N87 cells reached 70-90%, the cells were digested with trypsin. The trypsin was removed by centrifugation. […] The plate was incubated in a 5% CO2 incubator at 37° C. for 6 days. After the incubation was completed, the cell viability was detected with CellTiter-Glo reagent (Promega, G7573), and the specific cell viability value was measured by a multifunctional microplate reader (PerkinElmer, EnVision).

Starred links: 1 amine or outer side, 2 acyl side, 3 side chain; linkers in the order of their positions; H or OH if unused. Non-standard residues stand in square brackets, D forms with d. Residues, ends and D or L forms follow the SMILES beside them. *: point of attachment. Exatecan = CC[C@@]1(O)C(=O)OCc2c1cc1n(c2=O)Cc2c-1nc1cc(F)c(C)c3c1c2[C@@H](N*)CC3; Dolaproine = CO[C@@H]([C@@H]1CCCN1)[C@@H](C)C(=O)O; Hexanoyl(6-maleimido) = O=C1C=CC(=O)N1CCCCCC(=O)*; Dil = CC[C@H](C)[C@H](NC)[C@@H](CC(=O)O)OC; NHCH2OCH2CO = O=C(COCN[*:1])[*:2]; X1 = C[C@@H](N*)[C@@H](O)c1ccccc1; NMeV = CN[C@H](C(=O)O)C(C)C

For the compound `C=C1C[C@@H]2CC[C@@]34C[C@H]5O[C@H]6[C@@H](O3)[C@H]3O[C@H](CC[C@@H]3O[C@H]6[C@H]5O4)CC(=O)C[C@@H]3[C@@H](OC)[C@@H](C[C@H](O)CN)O[C@H]3C[C@H]3O[C@@H](CC[C@@H]1O2)C[C@@H](C)C3=C` [Eribulin, eribulin], the “Max Cytotoxicity %” value is reported as 93.99%. The compound also gave a concentration for half-maximal inhibition (IC50) (Homo sapiens, 144 h) of 0.22 nM.

Regarding `CC[C@@]1(O)C(=O)OCc2c1cc1n(c2=O)Cc2c-1nc1cc(F)c(C)c3c1c2[C@@H](NC(=O)COCNC(=O)CNC(=O)[C@H](Cc1ccccc1)NC(=O)CNC(=O)CNC(=O)CCCCCN1C(=O)C=CC1=O)CC3` [DS8201 scaffold, Deruxtecan] ({Hexanoyl(6-maleimido)}-GGFG[NHCH2OCH2CO]-Exatecan), the “Max Cytotoxicity %” value stood at 9.38%.

`CC[C@H](C)[C@@H]([C@@H](CC(=O)N1CCC[C@H]1[C@H](OC)[C@@H](C)C(=O)N[C@H](C)[C@@H](O)c1ccccc1)OC)N(C)C(=O)[C@@H](NC(=O)[C@@H](NC)C(C)C)C(C)C` [MMAE, monomethyl auristatin E] (H-[NMeV]V[Dil][Dolaproine]-X1): the midpoint of inhibition, the IC50, lay at 0.13 nM and the “Max Cytotoxicity %” value is 93.50%.
